{
  "source": "patent US7115279B2",
  "about": "“Pharmaceutical compositions of cholesteryl ester transfer protein inhibitors” (priority 2000, dated 2006)",
  "type_in_all_cases": "physicochemical",
  "key": {"[1]": {"assay": "in vitro dissolution test, microcentrifuge method, MFDS (Example 5, Drug 1 dispersions)", "conditions": "model-fasted duodenal solution (MFDS), pH 6.5, maximum concentration of Drug 1 in solution during the 90-minute test, TCmax 100 or 500 μg/mL", "protocol": "The spray-dried dispersions of Examples 1 to 4 were evaluated in in vitro dissolution tests using a microcentrifuge method. In this method, 1 mg of the spray-dried dispersions was added to a 1.5-mL microcentrifuge tube. The tube was placed in a 37° C. sonicating bath, and 1 mL of a model-fasted duodenal solution (MFDS) (comprising sodium taurocholate/1-palmitoyl-2-oleoyl-sn-glycero-3-phosphocholine (NaTC-POPC) in phosphate-buffered saline (PBS) at pH 6.5 and 290 mOsm/kg) was added. The samples were quickly mixed using a combination of vortex mixer and sonication for about 90 seconds. The theoretical maximum concentration (“TCmax”) of drug for Examples 1–3 if all the drug dissolved was 100 μg/mL, while for Example 4 the TCmax was 500 μg/mL. The samples were centrifuged at 13,000 G at 37° C. for 1 minute. The resulting supernatant solution was then sampled (100 μL) and diluted with 200 μL methanol and then analyzed by HPLC. The tubes were then mixed on the vortex mixer and allowed to stand undisturbed at 37° C. until the next sample. Samples were collected at 3, 10, 30, 60, and 90 minutes and for Examples 1 and 2 at 1200 minutes.\nFor Control 1, an in vitro test was performed using the procedure described above, except that 0.18 mg of crystalline Drug 1 was placed in a microcentrifuge tube and mixed with 1.8 mL of MFDS."}, "[2]": {"assay": "in vitro dissolution test, receptor solution MFDS (Example 17, Drug 2 dispersions)", "conditions": "TCmax 400 or 100 μg/mL, read-out: Cmax, 90", "protocol": "(§1) The spray-dried dispersions of Examples 6 and 7 were evaluated in an in vitro dissolution test using a microcentrifuge method. In this test, the spray-dried dispersion was added to a microcentrifuge tube for a Drug 2 dose of about 1000 μg/mL (7.2 mg for Example 6, 18 mg for Example 7). The tube was placed in a 37° C. sonicating bath, and 1.8 mL phosphate buffered saline (PBS) at pH 6.5 and 290 mOsm/kg was added. The samples were quickly mixed using a vortex mixer for about 60 seconds. The samples were centrifuged at 13,000 G at 37° C. for 1 minute. The resulting supernatant solution was then sampled and diluted 1:6 (by volume) with methanol and then analyzed by high-performance liquid chromatography (HPLC). The contents of the tubes were mixed on the vortex mixer and allowed to stand undisturbed at 37° C. until the next sample was taken. Samples were collected at 4, 10, 20, 40, 90, and 1200 minutes.\nThe dispersions of Examples 9–16 were also evaluated in an in vitro dissolution test using receptor solutions of MFDS using the procedures outlined in Example 8.\nFor Control 3, an in vitro dissolution test was performed using the procedure described above except that 0.72 mg of crystalline Drug 2 was used."}, "[3]": {"assay": "in vitro dissolution test, microcentrifuge method, PBS (Example 42, Drugs 4-9 dispersions)", "conditions": "PBS pH 6.5, 37° C.; for Cmax: phosphate-buffered saline, read-out: Cmax, 90", "protocol": "In this method, 15 mg of each SDD was added to a 2-mL microcentrifuge tube. The tube was placed in a 37° C. sonicating bath, and 1.5 mL of a phosphate-buffered saline (PBS) solution at pH 6.5 and 290 mOsm/kg) was added, resulting in a TCmax of 1000 μg/mL. The samples were quickly mixed using a combination of vortex mixer and sonication for about 90 seconds. The samples were centrifuged at 13,000 G at 37° C. for 1 minute. The resulting supernatant solution was then sampled and diluted 1:6 (by volume) with methanol and then analyzed by HPLC. The tubes were then mixed on the vortex mixer and allowed to stand undisturbed at 37° C. until the next sample. Samples were collected at 4, 10, 20, 40, and 90 minutes.\nFor Controls 6–11, an in vitro dissolution test was performed using the procedure described above, except that 1.5 mg of non-crystalline drug was placed in a microcentrifuge tube and mixed with 1.5 mL of PBS."}, "[4]": {"assay": "in vitro dissolution test, microcentrifuge method, PBS (Example 29, Drug 3 dispersions)", "conditions": "phosphate-buffered saline, pH 6.5, TCmax 400 μg/mL, read-out: Cmax, 90", "protocol": "The spray-dried dispersions of Examples 21–28 were evaluated in an in vitro dissolution test using a microcentrifuge method. In this method, 7.2 mg of each SDD was added to a 2-mL microcentrifuge tube. The tube was placed in a 37° C. sonicating bath, and 1.8 mL of a phosphate-buffered saline (PBS) solution at pH 6.5 and 290 mOsm/kg was added, resulting in a TCmax of 400 μg/mL. The samples were quickly mixed using a combination of vortex mixer and sonication for about 90 seconds. The samples were centrifuged at 13,000 G at 37° C. for 1 minute. The resulting supernatant solution was then sampled and diluted 1:6 (by volume) with methanol and then analyzed by HPLC. The tubes were then mixed on the vortex mixer and allowed to stand undisturbed at 37° C. until the next sample. Samples were collected at 4, 10, 20, 40, 90 and 1200 minutes.\nFor Control 5, an in vitro dissolution test was performed using the procedure described above, except that 0.72 mg of non-crystalline Drug 3 was placed in a microcentrifuge tube and mixed with 1.8 mL of PBS."}, "[5]": {"assay": "in vitro dissolution test, microcentrifuge method, PBS (Example 8, Drug 2 dispersions)", "conditions": "for Drug 2 Concentration / AUC: PBS pH 6.5, 37° C.; for Drug 2 Concentration: dose about 1000 μg/mL", "protocol": "as §1, with “minutes. […]” for “minutes.”"}},
  "data": [
    {"smiles": "COC(=O)N(Cc1cc(C(F)(F)F)cc(C(F)(F)F)c1)[C@@H]1C[C@H](C2CC2)N(C(=O)OC(C)C)c2ccc(C(F)(F)F)cc21", "note": "[Control 1, [2R,4R] 4-[(3,5-bis-trifluoromethyl-benzyl)-methoxycarbonyl-amino]-2-cyclopropyl-6-trifluoromethyl-3,4-dihydro-2H-quinoline-1-carboxylic acid isopropyl ester]", "values": [
      {"measurement": "Cmax at 100 μg/mL", "setting": "[1]", "value": 900, "unit": "ng/mL"}
    ]},
    {"smiles": "CCOC(=O)N1c2ccc(C(F)(F)F)cc2[C@@H](N(Cc2cc(C(F)(F)F)cc(C(F)(F)F)c2)C(=O)OC)C[C@H]1CC", "note": "[Control 3, [2R,4S] 4-[(3,5-bis-trifluoromethyl-benzyl)-methoxycarbonyl-amino]-2-ethyl-6-trifluoromethyl-3,4-dihydro-2H-quinoline-1-carboxylic acid ethyl ester]", "values": [
      {"measurement": "Cmax", "setting": "[2]", "value": "< 1000", "unit": "ng/mL"}
    ]},
    {"smiles": "COC(=O)N(Cc1cc(C(F)(F)F)cc(C(F)(F)F)c1)[C@H]1C[C@@H](C2CC2)N(C(=O)OC(C)C)c2ccc(C(F)(F)F)cc21", "note": "[Control 10, [2S,4S] 4-[(3,5-bis-trifluoromethyl-benzyl)-methoxycarbonyl-amino]-2-cyclopropyl-6-trifluoromethyl-3,4-dihydro-2H-quinoline-1-carboxylic acid isopropyl ester]", "values": [
      {"measurement": "Cmax", "setting": "[3]; TCmax 1000 μg/mL", "value": "< 1000", "unit": "ng/mL"}
    ]},
    {"smiles": "CCCOC(=O)N1c2ccc(C(F)(F)F)cc2[C@@H](N(Cc2cc(C(F)(F)F)cc(C(F)(F)F)c2)C(=O)OC)C[C@H]1CC", "note": "[Control 5, [2R,4S] 4-[(3,5-bis-trifluoromethyl-benzyl)-methoxycarbonyl-amino]-2-ethyl-6-trifluoromethyl-3,4-dihydro-2H-quinoline-1-carboxylic acid propyl ester]", "values": [
      {"measurement": "Cmax", "setting": "[4]", "value": "< 100", "unit": "ng/mL"}
    ]},
    {"smiles": "CCOC(=O)N1c2cc(OC)c(OC)cc2[C@@H](N(Cc2cc(C(F)(F)F)cc(C(F)(F)F)c2)C(=O)OC)C[C@H]1C", "note": "[Control 6, [2R,4S] 4-[(3,5-bis-trifluoromethyl-benzyl)-methoxycarbonyl-amino]-6,7-dimethoxy-2-methyl-3,4-dihydro-2H-quinoline-1-carboxylic acid ethyl ester]", "values": [
      {"measurement": "Cmax", "setting": "[3]; TCmax 1000 μg/mL", "value": "< 1000", "unit": "ng/mL"}
    ]},
    {"smiles": "CC1(C)Cc2nc(C3CCCC3)c([C@@H](F)c3ccc(C(F)(F)F)cc3)c(-c3ccc(F)cc3)c2[C@@H](O)C1", "note": "[Control 11, [3S,5S] 2-cyclopentyl-4-(4-fluoro-phenyl)-3-[fluoro-(4-trifluoromethyl-phenyl)-methyl]-7,7-dimethyl-5,6,7,8-tetrahydro-quinolin-5-ol]", "values": [
      {"measurement": "Cmax, 90", "setting": "[3]; TCmax 1000 μg/mL", "value": "<1000", "unit": "ng/mL"}
    ]},
    {"smiles": "CCOC(=O)N1c2cc(CC)c(CC)cc2[C@@H](N(Cc2cc(C(F)(F)F)cc(C(F)(F)F)c2)C(=O)OC)C[C@H]1C", "note": "[Control 7, [2R,4S] 4-[(3,5-bis-trifluoromethyl-benzyl)-methoxycarbonyl-amino]-6,7-diethyl-2-methyl-3,4-dihydro-2H-quinoline-1-carboxylic acid ethyl ester]", "values": [
      {"measurement": "Cmax", "setting": "[3]; TCmax 1000 μg/mL", "value": "< 1000", "unit": "ng/mL"}
    ]},
    {"smiles": "CCOC(=O)N1c2cc3c(cc2[C@@H](N(Cc2cc(C(F)(F)F)cc(C(F)(F)F)c2)C(=O)OC)C[C@H]1C)CCC3", "note": "[Control 8, [2R,4S] 4-[(3,5-bis-trifluoromethyl-benzyl)-methoxycarbonyl-amino]-2-methyl-2,3,4,6,7,8-hexahydro-cyclopenta[g]quinoline-1-carboxylic acid ethyl ester]", "values": [
      {"measurement": "AUC", "setting": "[3]; Time 0 min", "value": 0, "unit": "µg·min/mL"},
      {"measurement": "Concentration", "setting": "[3]; Time 0 min", "value": 0, "unit": "ng/mL"},
      {"measurement": "Cmax", "setting": "[3]; TCmax 1000 μg/mL", "value": "< 1000", "unit": "ng/mL"}
    ]},
    {"smiles": "CC[C@@H]1C[C@H](N(Cc2cc(C(F)(F)F)cc(C(F)(F)F)c2)C(C)=O)c2cc(C(F)(F)F)ccc2N1C(=O)OC(C)C", "note": "[Control 9, [2R,4S] 4-[acetyl-(3,5-bis-trifluoromethyl-benzyl)-amino]-2-ethyl-6-trifluoromethyl-3,4-dihydro-2H-quinoline-1-carboxylic acid isopropyl ester]", "values": [
      {"measurement": "Cmax", "setting": "[3]; TCmax 1000 μg/mL", "value": "< 1000", "unit": "ng/mL"}
    ]},
    {"smiles": "CCOC(=O)N1c2ccc(C(F)(F)F)cc2[C@@H](N(Cc2cc(C(F)(F)F)cc(C(F)(F)F)c2)C(=O)OC)C[C@H]1CC", "note": "[Control 2, [2R,4S] 4-[(3,5-bis-trifluoromethyl-benzyl)-methoxycarbonyl-amino]-2-ethyl-6-trifluoromethyl-3,4-dihydro-2H-quinoline-1-carboxylic acid ethyl ester]", "values": [
      {"measurement": "Drug 2 Concentration", "setting": "[5]; time 0 min", "value": 0, "unit": "µg/mL"},
      {"measurement": "Drug 2 Concentration", "setting": "[5]; time 4 min", "value": 6, "unit": "µg/mL"},
      {"measurement": "Drug 2 Concentration", "setting": "[5]; time 10 min", "value": "<1", "unit": "µg/mL"},
      {"measurement": "Drug 2 Concentration", "setting": "[5]; time 20 min", "value": "<1", "unit": "µg/mL"},
      {"measurement": "Drug 2 Concentration", "setting": "[5]; time 40 min", "value": 3, "unit": "µg/mL"},
      {"measurement": "Drug 2 Concentration", "setting": "[5]; time 90 min", "value": "<1", "unit": "µg/mL"},
      {"measurement": "Drug 2 Concentration", "setting": "[5]; time 1200 min", "value": "<1", "unit": "µg/mL"},
      {"measurement": "AUC", "setting": "[5]; time 0 min", "value": 0, "unit": "µg·min/mL"},
      {"measurement": "AUC", "setting": "[5]; time 4 min", "value": 12, "unit": "µg·min/mL"},
      {"measurement": "AUC", "setting": "[5]; time 10 min", "value": 30, "unit": "µg·min/mL"},
      {"measurement": "AUC", "setting": "[5]; time 20 min", "value": 30, "unit": "µg·min/mL"},
      {"measurement": "AUC", "setting": "[5]; time 40 min", "value": 60, "unit": "µg·min/mL"},
      {"measurement": "AUC", "setting": "[5]; time 90 min", "value": 135, "unit": "µg·min/mL"},
      {"measurement": "AUC", "setting": "[5]; time 1200 min", "value": 135, "unit": "µg·min/mL"},
      {"measurement": "AUC90", "setting": "[5]; area under the aqueous concentration versus time curve after 90 minutes, PBS", "value": 135, "unit": "µg·min/mL"},
      {"measurement": "Cmax at 1000 μg/mL", "setting": "[5]; phosphate buffered saline (PBS), pH 6.5, maximum concentration of Drug 2 in solution during the first 90 minutes, PBS", "value": 6000, "unit": "ng/mL"}
    ]}
  ]
}
